Experiment [1] addresses Vascular endothelial growth factor receptor 2 (Homo sapiens, UniProt P35968). The class given is functional.
Experiment [2] deals with Hydroxycarboxylic acid receptor 2 (Homo sapiens, UniProt Q8TDS4).
Experiment [3] has as its target T1, Thromboxane A2 receptor (Homo sapiens, UniProt P21731).
T1 sequence (P21731 whole entry): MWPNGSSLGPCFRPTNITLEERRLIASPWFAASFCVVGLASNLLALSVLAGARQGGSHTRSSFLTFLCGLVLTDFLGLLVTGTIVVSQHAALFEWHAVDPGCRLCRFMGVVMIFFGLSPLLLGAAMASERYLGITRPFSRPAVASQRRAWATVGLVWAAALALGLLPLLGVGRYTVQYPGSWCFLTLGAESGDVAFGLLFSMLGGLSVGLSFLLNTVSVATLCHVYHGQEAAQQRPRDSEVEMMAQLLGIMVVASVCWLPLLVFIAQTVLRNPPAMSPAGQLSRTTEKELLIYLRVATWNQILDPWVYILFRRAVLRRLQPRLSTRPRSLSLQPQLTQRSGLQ
The class given is functional.

For experiment [4], the target named is T2, Estrogen receptor (Homo sapiens, UniProt P03372).
T2 sequence (P03372 whole entry): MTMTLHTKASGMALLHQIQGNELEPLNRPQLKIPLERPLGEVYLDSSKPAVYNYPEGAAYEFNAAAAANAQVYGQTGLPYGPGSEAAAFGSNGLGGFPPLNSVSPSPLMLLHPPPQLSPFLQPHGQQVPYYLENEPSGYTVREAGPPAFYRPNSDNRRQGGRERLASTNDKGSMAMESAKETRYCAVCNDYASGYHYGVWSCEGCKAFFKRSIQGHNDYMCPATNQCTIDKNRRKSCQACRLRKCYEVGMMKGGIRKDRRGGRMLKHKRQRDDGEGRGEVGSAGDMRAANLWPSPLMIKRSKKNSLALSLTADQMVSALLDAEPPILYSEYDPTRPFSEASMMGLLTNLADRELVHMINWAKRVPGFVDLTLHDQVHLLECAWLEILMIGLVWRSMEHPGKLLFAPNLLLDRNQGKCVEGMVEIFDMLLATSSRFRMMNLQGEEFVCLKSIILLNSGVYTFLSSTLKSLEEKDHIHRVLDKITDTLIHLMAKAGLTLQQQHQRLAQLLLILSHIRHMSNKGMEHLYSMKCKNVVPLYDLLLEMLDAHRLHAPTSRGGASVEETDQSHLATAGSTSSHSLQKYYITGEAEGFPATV
The class given is functional.

Experiment [5] has as its target Gamma-aminobutyric acid type B receptor subunit 1 (Homo sapiens, UniProt Q9UBS5).
For experiment [6], the target named is T3, Androgen receptor (Rattus norvegicus, UniProt P15207).
T3 sequence (P15207 whole entry): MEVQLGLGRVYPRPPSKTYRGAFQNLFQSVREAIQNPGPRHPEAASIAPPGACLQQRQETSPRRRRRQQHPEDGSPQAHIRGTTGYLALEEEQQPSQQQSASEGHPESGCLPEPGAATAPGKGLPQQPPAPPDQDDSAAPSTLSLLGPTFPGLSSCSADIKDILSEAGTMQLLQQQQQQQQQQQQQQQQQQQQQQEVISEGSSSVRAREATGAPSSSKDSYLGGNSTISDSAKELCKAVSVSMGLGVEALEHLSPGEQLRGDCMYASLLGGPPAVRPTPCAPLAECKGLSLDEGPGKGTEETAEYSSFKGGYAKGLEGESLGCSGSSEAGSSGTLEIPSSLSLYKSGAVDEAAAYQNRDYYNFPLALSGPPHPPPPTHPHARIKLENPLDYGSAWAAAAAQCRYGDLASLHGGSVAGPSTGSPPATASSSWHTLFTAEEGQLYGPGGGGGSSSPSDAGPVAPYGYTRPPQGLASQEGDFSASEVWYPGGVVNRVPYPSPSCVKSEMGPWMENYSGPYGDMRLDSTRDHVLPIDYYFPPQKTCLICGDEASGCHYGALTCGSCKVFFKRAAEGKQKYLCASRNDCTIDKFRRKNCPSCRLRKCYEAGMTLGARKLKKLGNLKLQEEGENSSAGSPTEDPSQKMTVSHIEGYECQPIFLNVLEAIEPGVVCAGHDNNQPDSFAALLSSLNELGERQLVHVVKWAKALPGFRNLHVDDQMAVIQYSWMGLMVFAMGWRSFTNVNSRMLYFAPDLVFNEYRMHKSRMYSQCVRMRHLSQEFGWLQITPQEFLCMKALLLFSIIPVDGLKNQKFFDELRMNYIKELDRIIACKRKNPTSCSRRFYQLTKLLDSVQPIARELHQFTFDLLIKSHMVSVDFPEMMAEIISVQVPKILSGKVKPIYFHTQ

The target in experiment [7] is T4, Androgen receptor (Homo sapiens, UniProt P10275).
T4 sequence (P10275 whole entry): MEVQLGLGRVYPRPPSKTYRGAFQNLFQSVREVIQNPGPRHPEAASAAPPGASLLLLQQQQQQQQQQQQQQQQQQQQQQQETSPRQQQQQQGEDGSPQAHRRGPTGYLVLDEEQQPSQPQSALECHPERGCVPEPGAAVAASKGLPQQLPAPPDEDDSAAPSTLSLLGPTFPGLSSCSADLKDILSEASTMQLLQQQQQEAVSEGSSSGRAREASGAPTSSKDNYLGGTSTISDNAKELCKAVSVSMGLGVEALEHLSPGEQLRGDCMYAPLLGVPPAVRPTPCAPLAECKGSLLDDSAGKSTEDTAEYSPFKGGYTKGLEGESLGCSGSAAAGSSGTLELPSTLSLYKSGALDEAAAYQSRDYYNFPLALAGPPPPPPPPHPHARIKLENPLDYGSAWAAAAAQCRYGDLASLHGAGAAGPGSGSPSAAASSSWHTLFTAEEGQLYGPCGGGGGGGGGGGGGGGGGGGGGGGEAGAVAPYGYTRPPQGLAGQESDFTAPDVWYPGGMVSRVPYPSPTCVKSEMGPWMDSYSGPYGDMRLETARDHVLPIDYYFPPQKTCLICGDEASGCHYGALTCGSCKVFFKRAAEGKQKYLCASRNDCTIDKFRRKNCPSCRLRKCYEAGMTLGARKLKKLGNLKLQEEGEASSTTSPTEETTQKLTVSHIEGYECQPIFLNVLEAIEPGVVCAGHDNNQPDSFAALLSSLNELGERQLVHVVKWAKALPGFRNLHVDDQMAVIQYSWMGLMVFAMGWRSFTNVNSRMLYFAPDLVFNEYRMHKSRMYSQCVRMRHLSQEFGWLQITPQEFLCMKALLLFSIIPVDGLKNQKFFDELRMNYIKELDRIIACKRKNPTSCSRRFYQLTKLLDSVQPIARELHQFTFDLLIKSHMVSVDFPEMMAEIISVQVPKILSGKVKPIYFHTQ

The values below come from ChEMBL document CHEMBL5291721, “A preclinical secondary pharmacology resource illuminates target-adverse drug reaction associations of marketed drugs” (Nat Commun, 2023).

Bounds are passed on as bounds.
Further: assay procedure not described here.

Chain of Vascular endothelial growth factor receptor 2 (P35968 whole entry): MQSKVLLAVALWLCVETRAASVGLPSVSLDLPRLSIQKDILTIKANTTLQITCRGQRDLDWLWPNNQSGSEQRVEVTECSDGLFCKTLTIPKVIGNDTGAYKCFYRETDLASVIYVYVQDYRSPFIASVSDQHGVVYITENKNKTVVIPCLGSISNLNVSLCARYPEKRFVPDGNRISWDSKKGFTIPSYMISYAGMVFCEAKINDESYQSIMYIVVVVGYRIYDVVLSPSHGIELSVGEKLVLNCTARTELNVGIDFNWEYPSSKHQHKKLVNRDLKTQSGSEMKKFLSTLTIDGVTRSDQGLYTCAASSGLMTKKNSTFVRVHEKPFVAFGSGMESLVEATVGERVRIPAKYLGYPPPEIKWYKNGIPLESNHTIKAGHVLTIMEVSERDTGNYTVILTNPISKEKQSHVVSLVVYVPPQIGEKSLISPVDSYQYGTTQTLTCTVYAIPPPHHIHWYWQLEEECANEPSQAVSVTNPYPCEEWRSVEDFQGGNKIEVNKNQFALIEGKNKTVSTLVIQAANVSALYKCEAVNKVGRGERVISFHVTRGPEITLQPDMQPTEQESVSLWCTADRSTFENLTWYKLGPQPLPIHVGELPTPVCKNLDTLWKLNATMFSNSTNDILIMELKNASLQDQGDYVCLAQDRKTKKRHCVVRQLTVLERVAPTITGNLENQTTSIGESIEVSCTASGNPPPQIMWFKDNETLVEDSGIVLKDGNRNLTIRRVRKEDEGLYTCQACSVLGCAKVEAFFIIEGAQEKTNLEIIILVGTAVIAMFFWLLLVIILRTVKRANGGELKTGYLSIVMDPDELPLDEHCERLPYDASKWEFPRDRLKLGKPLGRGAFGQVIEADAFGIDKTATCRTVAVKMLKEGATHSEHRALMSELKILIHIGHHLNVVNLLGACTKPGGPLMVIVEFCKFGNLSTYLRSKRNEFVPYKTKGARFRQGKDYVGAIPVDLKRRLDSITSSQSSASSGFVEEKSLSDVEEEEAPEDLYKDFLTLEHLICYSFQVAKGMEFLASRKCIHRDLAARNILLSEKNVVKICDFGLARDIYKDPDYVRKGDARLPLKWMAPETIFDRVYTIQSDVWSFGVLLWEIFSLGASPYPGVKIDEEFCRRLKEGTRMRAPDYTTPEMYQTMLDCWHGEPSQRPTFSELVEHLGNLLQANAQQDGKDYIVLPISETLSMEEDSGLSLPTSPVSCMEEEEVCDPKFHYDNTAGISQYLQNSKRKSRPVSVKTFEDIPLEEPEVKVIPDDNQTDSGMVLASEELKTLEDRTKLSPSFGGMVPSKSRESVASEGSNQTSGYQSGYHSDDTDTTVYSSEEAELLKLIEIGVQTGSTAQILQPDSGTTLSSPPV
Chain of Gamma-aminobutyric acid type B receptor subunit 1 (Q9UBS5 whole entry): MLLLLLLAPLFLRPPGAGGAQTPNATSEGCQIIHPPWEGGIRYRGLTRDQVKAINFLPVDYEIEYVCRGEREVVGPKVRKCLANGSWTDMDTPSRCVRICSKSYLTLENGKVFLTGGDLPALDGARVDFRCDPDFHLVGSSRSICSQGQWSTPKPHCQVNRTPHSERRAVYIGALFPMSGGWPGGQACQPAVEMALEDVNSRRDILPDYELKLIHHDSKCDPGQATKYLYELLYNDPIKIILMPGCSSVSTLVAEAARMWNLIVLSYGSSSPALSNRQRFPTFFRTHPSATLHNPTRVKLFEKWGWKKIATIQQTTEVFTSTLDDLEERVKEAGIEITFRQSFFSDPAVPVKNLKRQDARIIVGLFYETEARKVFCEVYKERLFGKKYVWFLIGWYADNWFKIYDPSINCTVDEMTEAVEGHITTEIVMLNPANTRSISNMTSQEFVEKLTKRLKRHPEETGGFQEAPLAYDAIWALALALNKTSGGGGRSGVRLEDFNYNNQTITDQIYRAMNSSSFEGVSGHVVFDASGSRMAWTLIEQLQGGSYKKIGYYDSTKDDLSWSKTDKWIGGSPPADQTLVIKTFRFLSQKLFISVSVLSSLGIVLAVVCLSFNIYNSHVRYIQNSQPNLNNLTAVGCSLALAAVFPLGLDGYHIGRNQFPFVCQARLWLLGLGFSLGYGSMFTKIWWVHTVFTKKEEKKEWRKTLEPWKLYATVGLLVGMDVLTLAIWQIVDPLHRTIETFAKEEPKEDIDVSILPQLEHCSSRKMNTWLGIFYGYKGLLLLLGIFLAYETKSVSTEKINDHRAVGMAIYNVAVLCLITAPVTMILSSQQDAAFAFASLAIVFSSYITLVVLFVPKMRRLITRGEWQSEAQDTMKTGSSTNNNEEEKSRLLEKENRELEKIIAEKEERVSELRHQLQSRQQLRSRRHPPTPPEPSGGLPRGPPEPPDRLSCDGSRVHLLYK
Chain of Hydroxycarboxylic acid receptor 2 (Q8TDS4 whole entry): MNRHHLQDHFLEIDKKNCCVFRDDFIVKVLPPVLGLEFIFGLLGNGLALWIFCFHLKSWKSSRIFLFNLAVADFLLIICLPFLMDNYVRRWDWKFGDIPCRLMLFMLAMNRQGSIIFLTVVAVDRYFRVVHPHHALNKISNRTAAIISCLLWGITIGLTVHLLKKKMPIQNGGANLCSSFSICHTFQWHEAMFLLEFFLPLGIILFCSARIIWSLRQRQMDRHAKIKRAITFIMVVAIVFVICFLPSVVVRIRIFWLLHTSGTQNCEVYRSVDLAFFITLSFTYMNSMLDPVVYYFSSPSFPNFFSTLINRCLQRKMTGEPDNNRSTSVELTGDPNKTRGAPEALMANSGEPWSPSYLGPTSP

The term AC50 denotes the concentration giving half of the maximal activity seen. Regarding `Oc1ncnc2[nH]ncc12` [ALLOPURINOL], the figures for the AC50 in experiment [1], in experiment [2] and in experiment [3] were greater than 30 µM, greater than 10 µM and greater than 30 µM, respectively.

Consider `CO/N=C(\C(=O)N[C@@H]1C(=O)N2C(C(=O)[O-])=C(C[N+]3(C)CCCC3)CS[C@H]12)c1csc(N)n1`, for which the AC50 in experiment [1], in experiment [3] and in experiment [4] was greater than 300 µM each time.

With `CC(C)C(=O)Nc1ccc([N+](=O)[O-])c(C(F)(F)F)c1` [FLUTAMIDE], the AC50 was greater than 30 µM in experiment [1] and greater than 10 µM in experiment [3].

For `NC(=O)c1cnccn1` [PYRAZINAMIDE], the AC50 in experiment [1] and in experiment [3] was greater than 30 µM throughout.

As to `Nc1nc(N)c2nc(-c3ccccc3)c(N)nc2n1`, the concentration at half-maximal activity (AC50) in experiment [5] was greater than 10 µM; in experiment [6] it was greater than 30 µM; in experiment [1], greater than 30 µM; in experiment [7] it was greater than 30 µM; in experiment [3] it was greater than 30 µM.

Consider `CC(C)Cc1ccc(CC(=O)O)cc1` [IBUFENAC], for which the half-maximal activity concentration (AC50) in experiment [1] and in experiment [3] was greater than 30 µM in each case.

For `CC(C)NNC(=O)c1ccncc1` [IPRONIAZID], the AC50 in experiment [1], in experiment [3] and in experiment [4] was greater than 30 µM throughout.
